Measurements published in patent US10966996B2, “Glechoma longitube extract, preparation method for same, and use thereof in sugar reduction, weight loss, and lipid reduction” (SHANGHAI INSTITUTE OF MATERIA MEDICA CHINESE ACADEMY OF …, priority 2014, dated 2021).
“Also recorded” adds a separate entry of the source.

Key:
hDGAT1 = biological target: T1, hDGAT1 (Homo sapiens, UniProt O75907); assay: inhibitory activity against hDGAT1 (CPM fluorescence); type: biochemical; conditions: for inhibition at 10 µM: read-out: Inhibition rate (%) (10 μM) against hDGAT1; for inhibition at 50 µM: read-out: Inhibition rate (%) (50 μM) against hDGAT1
T1 construct: made in house; host or cells: insect cells
T1 sequence (O75907 1-488): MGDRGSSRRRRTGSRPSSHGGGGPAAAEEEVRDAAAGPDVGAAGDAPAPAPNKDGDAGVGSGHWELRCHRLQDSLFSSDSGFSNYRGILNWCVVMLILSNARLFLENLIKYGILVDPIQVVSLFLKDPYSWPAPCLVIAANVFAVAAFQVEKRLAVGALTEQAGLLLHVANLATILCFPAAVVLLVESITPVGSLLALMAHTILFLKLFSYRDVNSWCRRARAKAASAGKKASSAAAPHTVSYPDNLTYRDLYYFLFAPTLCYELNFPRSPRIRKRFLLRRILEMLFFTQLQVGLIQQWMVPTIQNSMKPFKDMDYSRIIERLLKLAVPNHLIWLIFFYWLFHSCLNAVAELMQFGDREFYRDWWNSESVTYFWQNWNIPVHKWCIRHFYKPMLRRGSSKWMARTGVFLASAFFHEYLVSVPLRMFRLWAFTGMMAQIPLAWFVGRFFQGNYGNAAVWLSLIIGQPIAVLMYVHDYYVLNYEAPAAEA
Experimental: Experimental method: (1) the effect of the extract of Glechoma longituba (Nakai) Kupr., LQC-H-1, on serum triglyceride level was evaluated in acute hypertriglyceridemic mouse model; 6-week old male C57BL/KsJ mice (Shanghai Slac Laboratory Animal Company), 8 for each group, weight of 20±2 g, were fed according to SPF grade operation procedure and fasted overnight for 16 hours prior to experiment. Compounds of different concentrations were intragastric administrated to each administration group of mice, respectively. Equal volume of water was given to control group and blank group of mice. 30 mins later, 2 g/kg olive oil was intragastric administrated to administration group and control group of mice, while equal volume of water was given to blank group of mice. 2 hours later, blood was collected from orbital vein of each group of mice for the separation of serum, and concentration of triglyceride in the serum was measured; (2) inhibitory activity of the individual compounds separated from the extract of Glechoma longituba (Nakai) Kupr., LQC-H-1, against diacylglycerol acyltransferase (DGAT): human derived DGAT1 obtained by expression and purification with insect cells were pre-incubated together with the compounds, substrate diacylglycerol was added to initiate the reaction in the presence of coenzyme A, fluorescence signal generated by the combination of produced sulfydryl and CPM was measured, and the inhibitory activity of the compound against DGAT was calculated according to the following formula: Inhibition rate %=(OD blank−OD compound)/(OD blank−OD negative control)*100%
(§1) OD compound, OD blank, and OD negative control represented the fluorescence values from a compound well, a blank well, and a negative control well free of DGAT1 enzyme, and the concentrations of the compounds when the enzyme activity inhibition rate (%) reached 50% were set as IC50 value; (3) inhibitory activity of the individual compounds separated from the extract of Glechoma longituba (Nakai) Kupr., LQC-H-1, against pancrelipase: substrate p-Nitrophenyl acetate (Sigma, USA) was formulated to 1.35 mM with phosphate buffer (25 mM, pH 6.8); porcine pancrelipase (Sigma) was formulated to 10 mg/ml with phosphate buffer; brominated eneyne compounds were formulated to solutions of different concentrations with phosphate buffer. Then, 50 μl of 1.35 mM p-Nitrophenyl acetate (Sigma, USA) solution and 10 μl of test compounds of different concentrations were sequentially added into a 96-well plate and pre-incubated at 37° C. for 5 mins. Finally, 50 μl of 10 mg/ml pancrelipase (EC 3.1.1.3, Sigma, USA) was added and mixed. The reaction proceeded at 37° C. for further 20 mins Absorbance of each well was measured at 492 nm. The inhibition rates (%) of the test samples against pancrelipase were calculated based on the absorbance at 492 nm. The concentrations of the compounds when then enzyme activity inhibition rate (%) reached 50% was set as IC50 value. The inhibition rate (%) could be calculated according to the following formula: Inhibition rate (%)=[(A−B)−(C−D)]/(A−B)×100

porcine pancrelipase = biological target: T2, porcine pancrelipase (Sus scrofa, UniProt P00591); assay: inhibitory activity against pancrelipase (p-Nitrophenyl acetate substrate); type: biochemical; conditions: read-out: Inhibition rate % (50 μM) against pancrelipase
T2 construct: purchased Sigma
T2 sequence (P00591 1-450): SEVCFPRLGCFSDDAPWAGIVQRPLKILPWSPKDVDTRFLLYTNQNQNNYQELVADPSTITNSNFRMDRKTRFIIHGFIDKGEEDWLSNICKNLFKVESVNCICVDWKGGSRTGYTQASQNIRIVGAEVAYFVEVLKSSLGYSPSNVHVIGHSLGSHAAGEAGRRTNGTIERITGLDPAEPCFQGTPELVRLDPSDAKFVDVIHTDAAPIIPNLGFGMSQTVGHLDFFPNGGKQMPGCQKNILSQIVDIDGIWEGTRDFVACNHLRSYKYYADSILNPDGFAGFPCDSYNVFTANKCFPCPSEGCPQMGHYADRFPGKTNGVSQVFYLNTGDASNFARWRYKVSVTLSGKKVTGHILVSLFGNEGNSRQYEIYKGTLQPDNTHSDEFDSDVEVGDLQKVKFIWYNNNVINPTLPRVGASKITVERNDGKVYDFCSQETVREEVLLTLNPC
Excerpt: as §1
In the above formula, A, B, C, and D represented the absorbance of a blank well after the reaction, the absorbance of a blank well prior to the reaction, the absorbance of a sample well after the reaction, and the absorbance of a sample well prior to the reaction.

db/db mice = assay: long term administration of Compound I in db/db mice; type: in vivo; conditions: 50 mg/kg once a day
Experimental: After the end of the acute experiment, each group of mice undergone long term administration experiment following the grouping in below: equal volume of distilled water was given to control group of mice; Compound I at the dosage of 50 mg/kg was given to administration group; DDP4 inhibitor, Sitagliptin, at 10 mg/kg was intragastric administrated to positive control group. Dosage volume was 10 ml/kg, once a day for 4 weeks. Weight, blood glucose, and dietary change of the mice were monitored every week. The improvement of diabetic symptom of spontaneous diabetes mellitus type 2 model db/db mice by long term administration of Compound I was evaluated.

[1] = two weeks after the administration

SMILES	inhibition at 10 µM (hDGAT1) [%]	inhibition at 50 µM (hDGAT1) [%]	inhibition at 50 µM (porcine pancrelipase) [%]	weight and diet of the mice (db/db mice)	fasting blood glucose (db/db mice; [1])	instant blood glucose (db/db mice; [1])
O=C(O)C1O[C@@H](OC2C(O)[C@H](O)C(C(=O)O)O[C@H]2Oc2cc(O)c3c(=O)cc(-c4ccc(O)c(O)c4)oc3c2)C(O)C(O)[C@@H]1O (stereo partly drawn) [Compound I, luteolin-7-O-[β-glucuronosyl(1→2)β-glucuronic acid]]	~20	> 50	41.9	did not significantly affect the weight and diet of the mice	significantly decreased; also recorded: lowered fasting blood glucose of mice	significantly decreased; also recorded: lowered instant blood glucose of mice
O=C(O)C1O[C@@H](OC2C(O)[C@H](O)C(C(=O)O)O[C@H]2Oc2cc(O)c3c(=O)cc(-c4ccc(O)cc4)oc3c2)C(O)C(O)[C@@H]1O (stereo partly drawn) [Compound II, apigenin-7-O-[β-glucuronosyl(1→2)β-glucuronic acid]]	~20	> 50	41.6	–	–	–
